The results in this text go back to US20100144741A1, “ETHANOLAMINE DERIVATIVES USEFUL AS BACE INHIBITORS” (priority 2006, published 2010).

In the assay the target is T1, Human BACE (Homo sapiens, UniProt P56817).
T1 construct: Recombinant BACE (extracellular domain, expressed in baculovirus and purified using standard methods); made in house
In words: Test 1: Inhibition of Human BACE. Particulars: recombinant BACE extracellular domain, fluorescence-quenched APP-derived peptide substrate, acetate buffer pH 4.5. In kind it is biochemical. The procedure:
Test 1: Inhibition of Human BACE
Recombinant BACE (extracellular domain, expressed in baculovirus and purified using standard methods) at 0.1-10 nM concentration is incubated with the test compound at various concentrations for 1 hour at room temperature in 10-100 mM acetate buffer, pH 4.5, containing 0.1% CHAPS. Synthetic fluorescence-quenched peptide substrate, derived from the sequence of APP and containing a suitable fluorophore-quencher pair is added to a final concentration of 1-5 μM and the increase in fluorescence is recorded at a suitable excitation/emission wavelength in a microplate spectro-fluorimeter for 5-30 minutes in 1-minute intervals. IC50 values are calculated from percentage of inhibition of BACE-activity as a function of the test compound concentration.

T1 sequence (P56817 46-457 limits assumed): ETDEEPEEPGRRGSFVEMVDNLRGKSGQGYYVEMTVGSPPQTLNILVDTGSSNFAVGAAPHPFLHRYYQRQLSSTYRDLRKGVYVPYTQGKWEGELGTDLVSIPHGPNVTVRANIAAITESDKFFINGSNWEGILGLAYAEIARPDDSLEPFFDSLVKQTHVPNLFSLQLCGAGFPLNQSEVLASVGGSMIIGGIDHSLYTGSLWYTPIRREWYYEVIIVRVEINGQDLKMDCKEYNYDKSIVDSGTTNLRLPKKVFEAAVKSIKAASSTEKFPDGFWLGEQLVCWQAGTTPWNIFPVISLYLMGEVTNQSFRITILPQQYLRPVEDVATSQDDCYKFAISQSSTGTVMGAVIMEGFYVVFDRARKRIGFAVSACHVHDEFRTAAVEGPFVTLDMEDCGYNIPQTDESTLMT

Consider `CC(=O)N[C@@H](Cc1ccc(Nc2cc(-c3ccccc3)ncn2)cc1)[C@H](O)CNC1(c2cccc(C(C)C)c2)CC1` [Example 2, N-{(1S,2R)-2-Hydroxy-3-[1-(3-isopropyl-phenyl)-cyclopropylamino]-1-[4-(6-phenyl-pyrimidin-4-ylamino)-benzyl]-propyl}-acetamide], for which the IC50 (in general, the midpoint of a concentration-inhibition curve) stood at 23 µM.
